Tests used:
[1] = biological target: 5-hydroxytryptamine receptor 6 (Homo sapiens) (UniProt P50406); test: Displacement of [3H]LSD from human 5-HT6 receptor expressed in HEK cell membranes at 10 uM incubated for 90 mins under dark condition by microbeta scintillation counting method relative to control; details: HEK293
[2] = biological target: 5-hydroxytryptamine receptor 5A (Homo sapiens) (UniProt P47898); test: Displacement of [3H]LSD from human 5-HT5A receptor expressed in Flp-In-CHO cell membranes incubated for 90 mins under dark condition by microbeta scintillation counting method relative to control; parameters: concentration or dose not given beside the values
[3] = biological target: T1, 5-hydroxytryptamine receptor 2A (Homo sapiens, UniProt P28223); test: Displacement of [3H]ketanserin from human 5-HT2A receptor expressed in HEK-T cell membranes at 10 uM incubated for 90 mins under dark condition by microbeta scintillation counting method relative to control
[4] = biological target: T2, 5-hydroxytryptamine receptor 2C (Homo sapiens, UniProt P28335); test: Displacement of [3H]mesulergine from human 5-HT2CR expressed in Flp-In HEK cell membranes incubated for 90 mins under dark condition by microbeta scintillation counting method; parameters: species or system HEK293
T2 sequence (P28335 whole entry): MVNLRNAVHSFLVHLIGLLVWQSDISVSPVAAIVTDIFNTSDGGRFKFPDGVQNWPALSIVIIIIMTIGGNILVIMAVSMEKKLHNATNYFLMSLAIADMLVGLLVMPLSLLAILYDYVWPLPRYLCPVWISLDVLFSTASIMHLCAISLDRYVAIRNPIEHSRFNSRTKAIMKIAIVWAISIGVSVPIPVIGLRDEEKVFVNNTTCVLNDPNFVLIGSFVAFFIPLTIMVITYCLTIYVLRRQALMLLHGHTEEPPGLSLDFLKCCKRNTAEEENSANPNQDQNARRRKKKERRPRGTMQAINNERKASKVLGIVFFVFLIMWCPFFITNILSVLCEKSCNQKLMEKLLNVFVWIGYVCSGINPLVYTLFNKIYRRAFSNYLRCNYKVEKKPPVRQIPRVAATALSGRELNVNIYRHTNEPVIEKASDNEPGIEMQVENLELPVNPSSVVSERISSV

[5] = biological target: T3, 5-hydroxytryptamine receptor 2C (Homo sapiens) (UniProt P28335); test: Displacement of [3H]mesulergine from human 5-HT2CR expressed in Flp-In HEK cell membranes at 10 uM incubated for 90 mins under dark condition by microbeta scintillation counting method relative to control; details: HEK293
T3 sequence (whole entry): T2 sequence (P28335 whole entry)

[6] = biological target: T4, Adenosine receptor A3 (Mus musculus) (UniProt Q61618); test: Agonist activity at recombinant mouse A3AR expressed in HEK293 cells assessed as inhibition of forskolin-stimulated cAMP accumulation at 10 uM after 15 mins relative to adenosine-5'-N-ethyluronamide; assay type: functional, cell-based
T4 sequence (whole entry): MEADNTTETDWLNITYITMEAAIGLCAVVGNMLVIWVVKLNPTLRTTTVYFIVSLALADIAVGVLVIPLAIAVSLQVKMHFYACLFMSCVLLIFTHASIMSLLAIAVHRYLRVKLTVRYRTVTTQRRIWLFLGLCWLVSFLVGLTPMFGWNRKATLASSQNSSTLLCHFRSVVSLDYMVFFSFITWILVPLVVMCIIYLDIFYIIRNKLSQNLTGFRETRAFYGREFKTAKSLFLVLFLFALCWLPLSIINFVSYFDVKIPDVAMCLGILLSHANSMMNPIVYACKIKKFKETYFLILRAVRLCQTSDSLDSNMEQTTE

[7] = biological target: T5, 5-hydroxytryptamine receptor 2B (Homo sapiens, UniProt P41595); assay type: functional, cell-based, HEK293
[8] = Half life of compound in fasted state simulated gastric fluid at pH 1.6; assay type: ADME, tissue-based, Stomach; details: simulated gi fluid
[9] = Half life of compound in fasted state simulated intestinal fluid at pH 6.5; assay type: ADME; details: simulated gi fluid
[10] = Metabolic stability in human plasma assessed as compound remaining measured after 120 mins; assay type: ADME, cell-free; details: read-out: Stability
[11] = Metabolic stability in rat plasma assessed as compound remaining measured after 120 mins; assay type: ADME, cell-free; details: 2 h
[12] = Metabolic stability in mouse plasma assessed as compound remaining measured after 120 mins; assay type: ADME, cell-free; details: 2 h
[13] = Apparent permeability across apical side to basolateral side in human Caco2 cells; assay type: ADME, cell-based; details: caco-2
[14] = Apparent permeability across basolateral side to apical side in human Caco2 cells; assay type: ADME, cell-based; details: caco-2
Cytochrome P450 2C9 = Cytochrome P450 2C9 (Homo sapiens, UniProt P11712); test: Inhibition of CYP2C9 (unknown origin); assay type: ADME
[15] = Half life in human liver microsomes; assay type: ADME
[16] = Half life in rat liver microsomes; assay type: ADME
[17] = Half life in mouse liver microsomes; assay type: ADME
[18] = Intrinsic clearance in human liver microsomes; assay type: ADME
[19] = Metabolic stability in human liver microsomes assessed as compound remaining measured after 1 hr in presence of cofactor; assay type: ADME
[20] = Growth inhibition of human HepG2 cells at 30 uM; assay type: cell-based; details: read-out: GI
[21] = Stability of compound in pH 1.6 fasted state simulated gastric fluid assessed as compound remaining measured after 2 hrs; assay type: ADME; details: read-out: Stability
[22] = Half life in Sprague-Dawley rat at 1 mg/kg, iv administered as single dose; assay type: ADME, organism-based; details: in vivo
[23] = Initial plasma concentration in Sprague-Dawley rat at 1 mg/kg, iv administered as single dose; assay type: ADME, organism-based; details: in vivo
[24] = Volume of distribution at steady state in Sprague-Dawley rat at 1 mg/kg, iv administered as single dose; assay type: ADME, organism-based; details: in vivo
[25] = biological target: T1, 5-hydroxytryptamine receptor 2A; test: Displacement of [3H]ketanserin from human 5-HT2A receptor expressed in HEK-T cell membranes incubated for 90 mins under dark condition by microbeta scintillation counting method
[26] = biological target: T5, 5-hydroxytryptamine receptor 2B; details: HEK293, at 10 µM
Adenosine receptor A2a = Adenosine receptor A2a (Homo sapiens, UniProt P29274); test: Displacement of [3 H]2-[p-(2-carboxyethyl)phenyl-ethylamino]-5'-N-ethylcarboxamidoadenosine from recombinant human adenosine receptor A2A expressed in HEK293 cell membranes after 60 mins by liquid scintillation counting method
[27] = biological target: T6, Adenosine receptor A1 (Homo sapiens) (UniProt P30542); test: Agonist activity at recombinant human A1AR expressed in CHO cells assessed as inhibition of forskolin-stimulated cAMP accumulation at 10 uM after 15 mins relative to N6-cyclopentyladenosine; assay type: functional, cell-based
T6 sequence (whole entry): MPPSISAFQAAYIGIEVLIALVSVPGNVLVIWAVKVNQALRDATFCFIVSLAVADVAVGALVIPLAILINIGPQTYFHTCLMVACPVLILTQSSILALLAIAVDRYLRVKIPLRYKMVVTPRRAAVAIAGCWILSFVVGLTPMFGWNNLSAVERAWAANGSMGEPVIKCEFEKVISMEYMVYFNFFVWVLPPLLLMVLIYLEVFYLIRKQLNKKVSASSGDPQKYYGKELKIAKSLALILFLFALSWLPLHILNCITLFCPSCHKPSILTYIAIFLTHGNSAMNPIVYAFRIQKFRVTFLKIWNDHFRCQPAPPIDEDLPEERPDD

Cytochrome P450 2D6 = Cytochrome P450 2D6 (Homo sapiens, UniProt P10635); test: Inhibition of CYP2D6 (unknown origin); assay type: ADME
Sequence of Cytochrome P450 2D6 (P10635 whole entry): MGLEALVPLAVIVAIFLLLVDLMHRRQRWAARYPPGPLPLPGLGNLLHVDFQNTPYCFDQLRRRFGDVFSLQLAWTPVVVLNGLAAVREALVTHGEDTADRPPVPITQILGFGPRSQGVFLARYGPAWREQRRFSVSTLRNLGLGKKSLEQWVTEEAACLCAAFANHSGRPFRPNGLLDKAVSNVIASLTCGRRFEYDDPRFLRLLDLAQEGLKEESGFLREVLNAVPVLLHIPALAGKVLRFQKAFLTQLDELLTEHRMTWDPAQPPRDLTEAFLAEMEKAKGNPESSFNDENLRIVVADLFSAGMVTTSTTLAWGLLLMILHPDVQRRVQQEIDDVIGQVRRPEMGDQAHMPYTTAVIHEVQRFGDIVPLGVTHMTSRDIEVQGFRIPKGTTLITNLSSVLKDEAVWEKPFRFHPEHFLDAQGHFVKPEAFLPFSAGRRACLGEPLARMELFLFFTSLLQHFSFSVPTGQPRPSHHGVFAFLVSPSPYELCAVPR

T1 sequence (P28223 whole entry): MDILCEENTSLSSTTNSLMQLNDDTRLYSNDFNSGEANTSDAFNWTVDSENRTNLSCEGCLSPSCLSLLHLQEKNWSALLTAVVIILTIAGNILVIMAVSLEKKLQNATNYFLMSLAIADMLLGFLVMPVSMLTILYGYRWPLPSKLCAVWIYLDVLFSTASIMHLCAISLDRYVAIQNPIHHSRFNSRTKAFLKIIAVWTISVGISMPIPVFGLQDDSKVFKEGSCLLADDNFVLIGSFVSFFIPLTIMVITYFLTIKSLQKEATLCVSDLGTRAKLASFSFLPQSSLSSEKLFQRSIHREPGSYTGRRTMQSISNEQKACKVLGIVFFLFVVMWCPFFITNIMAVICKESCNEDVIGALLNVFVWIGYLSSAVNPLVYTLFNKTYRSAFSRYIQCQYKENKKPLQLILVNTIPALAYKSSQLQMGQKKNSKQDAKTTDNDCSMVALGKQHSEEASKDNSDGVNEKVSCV
Sequence of 5-hydroxytryptamine receptor 6 (Homo sapiens) (P50406 whole entry): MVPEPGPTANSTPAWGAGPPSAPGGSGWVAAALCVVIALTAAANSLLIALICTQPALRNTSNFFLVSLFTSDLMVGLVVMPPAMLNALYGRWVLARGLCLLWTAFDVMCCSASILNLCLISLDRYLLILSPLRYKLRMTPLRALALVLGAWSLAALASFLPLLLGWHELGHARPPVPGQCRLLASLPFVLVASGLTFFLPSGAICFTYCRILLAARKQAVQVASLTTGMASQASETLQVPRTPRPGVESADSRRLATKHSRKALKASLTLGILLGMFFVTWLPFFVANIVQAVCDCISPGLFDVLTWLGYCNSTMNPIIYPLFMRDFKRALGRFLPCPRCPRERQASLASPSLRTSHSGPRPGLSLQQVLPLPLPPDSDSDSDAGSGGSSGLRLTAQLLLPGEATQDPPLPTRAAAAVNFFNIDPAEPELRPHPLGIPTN
Sequence of 5-hydroxytryptamine receptor 5A (Homo sapiens) (P47898 whole entry): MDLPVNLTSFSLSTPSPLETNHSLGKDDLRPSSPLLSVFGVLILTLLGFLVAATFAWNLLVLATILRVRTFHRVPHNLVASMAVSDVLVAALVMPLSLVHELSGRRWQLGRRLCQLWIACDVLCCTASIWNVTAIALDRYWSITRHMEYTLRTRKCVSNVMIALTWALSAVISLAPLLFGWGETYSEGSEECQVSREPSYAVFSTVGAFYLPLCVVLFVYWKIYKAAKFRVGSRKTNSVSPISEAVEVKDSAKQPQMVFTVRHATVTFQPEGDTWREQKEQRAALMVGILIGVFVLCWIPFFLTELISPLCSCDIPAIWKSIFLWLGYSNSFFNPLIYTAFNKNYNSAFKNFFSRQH
T5 sequence (P41595 whole entry): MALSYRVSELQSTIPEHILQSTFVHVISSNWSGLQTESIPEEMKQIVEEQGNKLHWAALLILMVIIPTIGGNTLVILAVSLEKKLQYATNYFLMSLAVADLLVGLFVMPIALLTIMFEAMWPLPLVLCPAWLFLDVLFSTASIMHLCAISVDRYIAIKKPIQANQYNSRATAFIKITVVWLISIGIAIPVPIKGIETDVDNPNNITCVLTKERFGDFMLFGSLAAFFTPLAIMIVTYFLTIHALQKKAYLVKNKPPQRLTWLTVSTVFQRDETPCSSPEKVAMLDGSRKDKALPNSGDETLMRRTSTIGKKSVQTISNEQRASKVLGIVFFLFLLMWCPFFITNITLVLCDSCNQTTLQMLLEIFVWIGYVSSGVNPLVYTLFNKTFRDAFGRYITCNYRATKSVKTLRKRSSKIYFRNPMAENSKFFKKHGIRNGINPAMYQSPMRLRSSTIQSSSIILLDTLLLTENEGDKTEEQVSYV
Sequence of Adenosine receptor A2a (P29274 whole entry): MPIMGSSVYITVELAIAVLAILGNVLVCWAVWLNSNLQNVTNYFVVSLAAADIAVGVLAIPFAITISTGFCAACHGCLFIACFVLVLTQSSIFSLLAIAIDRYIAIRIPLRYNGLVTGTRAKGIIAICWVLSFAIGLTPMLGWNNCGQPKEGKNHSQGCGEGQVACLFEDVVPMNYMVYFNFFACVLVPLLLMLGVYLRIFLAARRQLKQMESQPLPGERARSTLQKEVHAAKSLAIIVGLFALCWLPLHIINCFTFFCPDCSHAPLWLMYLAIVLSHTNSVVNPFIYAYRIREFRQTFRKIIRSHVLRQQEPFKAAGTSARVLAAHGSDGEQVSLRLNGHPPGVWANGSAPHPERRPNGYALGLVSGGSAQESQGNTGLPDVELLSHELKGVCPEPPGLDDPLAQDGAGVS
Sequence of Cytochrome P450 2C9 (P11712 whole entry): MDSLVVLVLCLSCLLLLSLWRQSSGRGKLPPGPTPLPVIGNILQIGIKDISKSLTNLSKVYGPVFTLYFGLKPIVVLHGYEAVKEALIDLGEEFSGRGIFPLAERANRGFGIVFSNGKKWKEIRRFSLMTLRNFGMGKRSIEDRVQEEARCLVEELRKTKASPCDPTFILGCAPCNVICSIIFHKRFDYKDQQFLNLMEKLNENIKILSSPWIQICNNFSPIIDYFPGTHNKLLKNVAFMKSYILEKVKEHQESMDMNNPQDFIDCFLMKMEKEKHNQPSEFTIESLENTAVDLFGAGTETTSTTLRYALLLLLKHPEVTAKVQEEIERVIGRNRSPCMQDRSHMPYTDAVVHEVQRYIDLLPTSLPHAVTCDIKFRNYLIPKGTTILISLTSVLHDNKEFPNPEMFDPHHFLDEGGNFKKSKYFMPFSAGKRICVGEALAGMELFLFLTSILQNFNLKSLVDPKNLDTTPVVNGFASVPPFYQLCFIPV

Structure (SMILES)	inhibition [1] [%]	inhibition [2] [%]	inhibition [3] [%]	Ki [4] [nM]	inhibition [5] [%]	Imax [6] [%]	Ki [7] [nM]	t1/2 [8] [h]	t1/2 [9] [h]	remaining at 2 h [10] [%]	Stability [11] [%]	Stability [12] [%]	Papp [13] [×10⁻⁶ cm/s]	Papp [14] [×10⁻⁶ cm/s]	IC50 (Cytochrome P450 2C9) [nM]	t1/2 [15] [h]	t1/2 [16] [h]	t1/2 [17] [h]	Ki [25] [nM]	inhibition [26] [%]	further results
COC(=O)[C@@]12C[C@@H]1[C@@H](n1cnc3c(NC(C4CC4)C4CC4)nc(Cl)nc31)[C@H](O)[C@@H]2O	< 50	< 50	< 10	117	> 50	41.4	3.2	2.08	> 8	95.3 to 100	70.9	61	18.47	30.59	20100	> 2.33	> 2.33	> 2.33	> 10000	> 50	CLH [18]: 0.77 µL/min/mg; Stability [19]: 94%; inhibition at 30 µM [20]: < 30%; remaining at 2 h [21]: 50%; t1/2 [22]: 3.56 h; C0 [23]: 349 ng/mL; Vdss [24]: 4.62 L/kg
OC[C@@]12C[C@@H]1[C@@H](n1cnc3c(NC(C4CC4)C4CC4)nc(Cl)nc31)[C@H](O)[C@@H]2O	< 50	< 50	< 10	84	> 50	–	–	–	–	–	–	–	–	–	–	–	–	–	> 10000	–	Ki (Adenosine receptor A2a): 2200 nM; Imax [27]: 104%
CNC(=O)[C@@]12C[C@@H]1[C@@H](n1cnc3c(NC(C4CC4)C4CC4)nc(Cl)nc31)[C@H](O)[C@@H]2O	< 50	< 50	< 10	269	> 50	96.7	4.4	2.2	> 8	100 to 104	88.7	95	4.73	46.21	> 30000	2.17	> 2.33	> 2.42	> 10000	> 50	Ki (Adenosine receptor A2a): 4320 nM; IC50 (Cytochrome P450 2D6): > 30000 nM; CLH [18]: 1.75 µL/min/mg; Stability [19]: 87%; inhibition at 30 µM [20]: < 30%; remaining at 2 h [21]: 50%; t1/2 [22]: 2.89 h; C0 [23]: 1070 ng/mL; Vdss [24]: 3.16 L/kg
CCOC(=O)[C@@]12C[C@@H]1[C@@H](n1cnc3c(NC(C4CC4)C4CC4)nc(Cl)nc31)[C@H](O)[C@@H]2O	< 50	< 50	–	30	> 50	26.3	1.8	–	–	–	–	–	–	–	–	–	–	–	> 10000	> 50	Imax [27]: 89%

Source: ChEMBL document CHEMBL3862033 (J Med Chem, 2016)
